Source: US20240390316A1 (SHENZHEN TECHNOLOGY UNIVERSITY, priority 2022, published 2024)
Counter-ions that a name gives are not always drawn.

Columns and labels:
CVB1 [1] = conditions: Coxsackievirus B type 1; CPE in vitro
Method: 72 hours later, the degree of a cytopathic effect was detected by an AlamarBlue fluorescent reagent, and an inhibition rate was calculated by using a formula.

[2] = tested on: Coxsackievirus A (6/10/16 subtype); assay: Antiviral activity against Coxsackievirus A (CPE in vitro); assay type: cell-based
Method: (§1) Test 3: In vitro anti-CVB1, anti-CVB2, anti-CVB3, anti-CVA16, anti-EV71 BrCr and anti-EV71-C2 virus models of Vero cells (cell quantity: 1.5×10^4 cells per well) were established, respectively. […] An inhibition rate and a standard deviation were measured by an AlamarBlue test in three parallel tests.

Coxsackievirus B = assay: Inhibition rate at 25 μM in virus-infected Vero cells (AlamarBlue); assay type: cell-based; conditions: 72 hours, FIG. 3
Method: as §1

CVB3 = conditions: Coxsackievirus B type 3; CPE in vitro
CVB2 = conditions: Coxsackievirus B type 2; CPE in vitro
CVB1 [3] = assay: Progeny virus yield of CVB1 in Vero cells (supernatant titrated by plaque reduction test); assay type: cell-based, Coxsackievirus B1 (CVB1); conditions: 0.02 MOI CVB1, Vero cells, 72 hours, FIG. 4c
Method: After culture for 72 hours, a supernatant was titrated by a plaque reduction test, and results were obtained from three groups of parallel tests.

Vero cytotoxicity test = assay type: cell-based; conditions: African green monkey; Vero cells; mean ± standard deviation of three groups of parallel tests
Method: A cytotoxicity test of CVB1, CVB2 and CVB3 on Vero cells was carried out with three groups of parallel tests, respectively, and Table 1 was obtained.

[4] = tested on: enterovirus type 71 (BrCr/C4 subtype); assay: Antiviral activity against enterovirus type 71 (CPE in vitro); assay type: cell-based
Method: as §1

CVB1 [5] = assay: Time process test (administration time after infection); assay type: cell-based, Coxsackievirus B1 (CVB1); conditions: different administration times, FIG. 5

CN(C)CCC=C1c2ccccc2COc2ccccc21 [doxepin hydrochloride]
antiviral activity (in words) (CVB1 [1]): strong antiviral activity
antiviral activity (in words) [2]: does not have any antiviral activity
activity spectrum from inhibition rate (in words) (Coxsackievirus B): broad-spectrum activity against Coxsackievirus B
antiviral activity (in words) (CVB3): strong antiviral activity
antiviral activity (in words) (CVB2): strong antiviral activity
progeny yield of CVB1 (in words) (CVB1 [3]): inhibited the progeny yield of CVB1
CC50 (Vero cytotoxicity test): 90.7 ± 16.4 µM
antiviral activity (in words) [4]: does not have any antiviral activity
stage of infection cycle inhibited (in words) (CVB1 [5]): inhibits virus replication at an early stage of an infection cycle
